According to US9937151B2, “Carbapenem antibacterials with gram-negative activity” (priority 2010, dated 2018):
≈ marks a conversion by molar mass, not a printed value.

Tested on: G(−) bacterial strains
Assay: Dilution antimicrobial susceptibility tests (MIC, NCCLS agar dilution / broth dilution)
Format: cell-based, Gram-negative organisms
Details: unit assumed
Protocol: The MIC (minimum inhibitory concentration) was determined by the NCCLS (National Committee for Clinical Laboratory Standards) methods 2000. Methods for dilution antimicrobial susceptibility testing for bacteria that growth aerobically (M7-A5, vol. 20, No. 2). The agar dilution method for determining antimicrobial susceptibility was carried out using Mueller-Hinton agar. A final inoculum of 10^4 CFU/spot was applied with an inoculation device. Broth dilution tests were performed with 5×10^5 CFU/well in 96 well plates. The susceptibilities of streptococci were determined by Mueller-Hinton agar supplemented with 5% sheep blood. All assays were run with the indicated control strains, available from the ATCC (American Type Culture Collection, Rockville, Md.).
Abbreviations used in Table 1 are defined as follows: Cf-R: Ceftazidime Resistance, Ci-R: Ciprofloxacin Resistance, Gen-R: Gentamycin Resistance, Imp-R: Imipenem Resistance, Mp-R: Meropenem Resistance, Ofx-R: Ofloxacin Resistance, B+: β-lactamase Production, AmpC: AmpC-lactamase Hyper production, CBPase: Carbapenemase Production.

[1] = strain #1 Acinetobacter calcoaceticus
[2] = strain #2 Acinetobacter baumannii, Cf-R, Ci-R
[3] = strain #3 Acinetobacter baumannii, Cf-R, Ci-R, Mp-I
[4] = strain #4 Acinetobacter baumannii, Cf-R, Imp-I, CBPase
[5] = strain #7 Enterobacter aerogenes
[6] = strain #8 Enterobacter cloacae, Cf-R, B+
[7] = strain #9 Enterobacter cloacae, Cf-R
[8] = strain #10 Escherichia coli, Ci-R
[9] = strain #11 Escherichia coli, Ci-R, AmpC
[10] = strain #15 Klebsiella pneumoniae
[11] = strain #16 Moraxella catarrhalis
[12] = strain #21 Providencia rettgeri
[13] = strain #22 Salmonella typhimurium
[14] = strain #25 Shigella dysenteriae
[15] = strain #28 Stenotrophomonas maltophilia
[16] = strain #29 Pseudomonas aeruginosa
[17] = strain #30 Pseudomonas aeruginosa
[18] = strain #31 Pseudomonas aeruginosa, Ofx-R
[19] = strain #32 Pseudomonas aeruginosa, Cf-R
[20] = strain #33 Pseudomonas aeruginosa, Ci-R
[21] = strain #34 Pseudomonas aeruginosa, Gen-R
[22] = strain #35 Pseudomonas aeruginosa, Ip-R
[23] = strain #36 Pseudomonas aeruginosa, Cf-R, Ci-R, Mp-R

C[C@@H](O)C1C(=O)N2C(C(=O)O)=C(CN3CC[C@H](C(=O)NS(C)(=O)=O)C3)[C@H](C)C12 (some centres unmarked) [Compound 132]
MIC [1]: 4 µg/mL (≈ 9.63 µM)
MIC [2]: 16 µg/mL (≈ 38.5 µM)
MIC [3]: 16 µg/mL (≈ 38.5 µM)
MIC [4]: 32 µg/mL (≈ 77 µM)
MIC (strain #5 Citrobacter diversus): 0.25 µg/mL (≈ 0.602 µM)
MIC (strain #6 Citrobacter freundii): 0.25 µg/mL (≈ 0.602 µM)
MIC [5]: 1 µg/mL (≈ 2.41 µM)
MIC [6]: 0.25 µg/mL (≈ 0.602 µM)
MIC [7]: 0.5 µg/mL (≈ 1.2 µM)
MIC [8]: 0.25 µg/mL (≈ 0.602 µM)
MIC [9]: 0.25 µg/mL (≈ 0.602 µM)
MIC (strain #12 Escherichia coli): 0.25 µg/mL (≈ 0.602 µM)
MIC (strain #13 Escherichia coli): 0.25 µg/mL (≈ 0.602 µM)
MIC (strain #14 Klebsiella oxytoca): 0.5 µg/mL (≈ 1.2 µM)
MIC [10]: 0.5 µg/mL (≈ 1.2 µM)
MIC [11]: 0.016 µg/mL (≈ 0.0385 µM)
MIC (strain #17 Morganella Morganii): 4 µg/mL (≈ 9.63 µM)
MIC (strain #18 Morganella Morganii): 4 µg/mL (≈ 9.63 µM)
MIC (strain #19 Proteus vulgaris): 1 µg/mL (≈ 2.41 µM)
MIC (strain #20 Proteus mirabilis): 0.25 µg/mL (≈ 0.602 µM)
MIC [12]: 1 µg/mL (≈ 2.41 µM)
MIC [13]: 0.25 µg/mL (≈ 0.602 µM)
MIC (strain #23 Serratia marcescens): 0.5 µg/mL (≈ 1.2 µM)
MIC (strain #24 Serratia marcescens): 1 µg/mL (≈ 2.41 µM)
MIC [14]: 0.25 µg/mL (≈ 0.602 µM)
MIC (strain #26 Shigella sonnei): 0.25 µg/mL (≈ 0.602 µM)
MIC (strain #27 Shigella flexneri): 0.13 µg/mL (≈ 0.313 µM)
MIC [15]: 2 µg/mL (≈ 4.81 µM)

C[C@@H](O)C1C(=O)N2C(C(=O)O)=C(CN3CC[C@H](NCC(N)=O)C3)[C@H](C)C12 (some centres unmarked) [Compound 83]
MIC [1]: 2 µg/mL (≈ 5.46 µM)
MIC [2]: 4 µg/mL (≈ 10.9 µM)
MIC [3]: 8 µg/mL (≈ 21.8 µM)
MIC [4]: 8 µg/mL (≈ 21.8 µM)
MIC (strain #5 Citrobacter diversus): 0.5 µg/mL (≈ 1.36 µM)
MIC (strain #6 Citrobacter freundii): 1 µg/mL (≈ 2.73 µM)
MIC [5]: 4 µg/mL (≈ 10.9 µM)
MIC [6]: 0.5 µg/mL (≈ 1.36 µM)
MIC [7]: 1 µg/mL (≈ 2.73 µM)
MIC [8]: 0.5 µg/mL (≈ 1.36 µM)
MIC [9]: 0.5 µg/mL (≈ 1.36 µM)
MIC (strain #12 Escherichia coli): 0.5 µg/mL (≈ 1.36 µM)
MIC (strain #13 Escherichia coli): 1 µg/mL (≈ 2.73 µM)
MIC (strain #14 Klebsiella oxytoca): 2 µg/mL (≈ 5.46 µM)
MIC [10]: 1 µg/mL (≈ 2.73 µM)
MIC [11]: 0.031 µg/mL (≈ 0.0846 µM)
MIC (strain #17 Morganella Morganii): 8 µg/mL (≈ 21.8 µM)
MIC (strain #18 Morganella Morganii): 8 µg/mL (≈ 21.8 µM)
MIC (strain #19 Proteus vulgaris): 4 µg/mL (≈ 10.9 µM)
MIC (strain #20 Proteus mirabilis): 1 µg/mL (≈ 2.73 µM)
MIC [12]: 4 µg/mL (≈ 10.9 µM)
MIC [13]: 1 µg/mL (≈ 2.73 µM)
MIC (strain #23 Serratia marcescens): 2 µg/mL (≈ 5.46 µM)
MIC (strain #24 Serratia marcescens): 2 µg/mL (≈ 5.46 µM)
MIC [14]: 1 µg/mL (≈ 2.73 µM)
MIC (strain #26 Shigella sonnei): 1 µg/mL (≈ 2.73 µM)
MIC (strain #27 Shigella flexneri): 0.5 µg/mL (≈ 1.36 µM)
MIC [15]: 1 µg/mL (≈ 2.73 µM)
MIC [16]: 16 µg/mL (≈ 43.7 µM)
MIC [17]: 16 µg/mL (≈ 43.7 µM)
MIC [18]: 8 µg/mL (≈ 21.8 µM)
MIC [19]: 16 µg/mL (≈ 43.7 µM)
MIC [20]: 16 µg/mL (≈ 43.7 µM)
MIC [21]: 32 µg/mL (≈ 87.3 µM)
MIC [22]: 32 µg/mL (≈ 87.3 µM)
MIC [23]: > 32 µg/mL

C[C@@H](O)C1C(=O)N2C(C(=O)O)=C(CN3CC[C@H](C(=O)NC(=N)N)C3)[C@H](C)C12 (some centres unmarked) [Compound 143]
MIC [1]: 8 µg/mL (≈ 21.1 µM)
MIC [2]: 32 µg/mL (≈ 84.3 µM)
MIC [3]: 32 µg/mL (≈ 84.3 µM)
MIC [4]: > 32 µg/mL
MIC (strain #5 Citrobacter diversus): 0.5 µg/mL (≈ 1.32 µM)
MIC (strain #6 Citrobacter freundii): 1 µg/mL (≈ 2.64 µM)
MIC [5]: 4 µg/mL (≈ 10.5 µM)
MIC [6]: 0.5 µg/mL (≈ 1.32 µM)
MIC [7]: 1 µg/mL (≈ 2.64 µM)
MIC [8]: 0.5 µg/mL (≈ 1.32 µM)
MIC [9]: 0.5 µg/mL (≈ 1.32 µM)
MIC (strain #12 Escherichia coli): 0.5 µg/mL (≈ 1.32 µM)
MIC (strain #13 Escherichia coli): 0.5 µg/mL (≈ 1.32 µM)
MIC (strain #14 Klebsiella oxytoca): 1 µg/mL (≈ 2.64 µM)
MIC [10]: 2 µg/mL (≈ 5.27 µM)
MIC [11]: 0.063 µg/mL (≈ 0.166 µM)
MIC (strain #17 Morganella Morganii): 16 µg/mL (≈ 42.2 µM)
MIC (strain #18 Morganella Morganii): 8 µg/mL (≈ 21.1 µM)
MIC (strain #19 Proteus vulgaris): 8 µg/mL (≈ 21.1 µM)
MIC (strain #20 Proteus mirabilis): 1 µg/mL (≈ 2.64 µM)
MIC [12]: 2 µg/mL (≈ 5.27 µM)
MIC [13]: 0.5 µg/mL (≈ 1.32 µM)
MIC (strain #23 Serratia marcescens): 1 µg/mL (≈ 2.64 µM)
MIC (strain #24 Serratia marcescens): 2 µg/mL (≈ 5.27 µM)
MIC [14]: 1 µg/mL (≈ 2.64 µM)
MIC (strain #26 Shigella sonnei): 1 µg/mL (≈ 2.64 µM)
MIC (strain #27 Shigella flexneri): 0.5 µg/mL (≈ 1.32 µM)
MIC [15]: 4 µg/mL (≈ 10.5 µM)

CC(O)C1C(=O)N2C(C(=O)O)=C(CN3CCC(C(=N)N)C3)C(C)C12 (centres unmarked) [Compound 185a]
MIC [1]: 0.13 µg/mL (≈ 0.386 µM)
MIC [2]: 0.5 µg/mL (≈ 1.49 µM)
MIC [3]: 1 µg/mL (≈ 2.97 µM)
MIC [4]: 1 µg/mL (≈ 2.97 µM)
MIC (strain #5 Citrobacter diversus): 0.13 µg/mL (≈ 0.386 µM)
MIC (strain #6 Citrobacter freundii): 0.13 µg/mL (≈ 0.386 µM)
MIC [5]: 0.5 µg/mL (≈ 1.49 µM)
MIC [6]: 0.063 µg/mL (≈ 0.187 µM)
MIC [7]: 0.13 µg/mL (≈ 0.386 µM)
MIC [8]: 0.063 µg/mL (≈ 0.187 µM)
MIC [9]: 0.063 µg/mL (≈ 0.187 µM)
MIC (strain #12 Escherichia coli): 0.063 µg/mL (≈ 0.187 µM)
MIC (strain #13 Escherichia coli): 0.13 µg/mL (≈ 0.386 µM)
MIC (strain #14 Klebsiella oxytoca): 0.25 µg/mL (≈ 0.743 µM)
MIC [10]: 0.25 µg/mL (≈ 0.743 µM)
MIC [11]: ≤ 0.008 µg/mL
MIC (strain #17 Morganella Morganii): 1 µg/mL (≈ 2.97 µM)
MIC (strain #18 Morganella Morganii): 1 µg/mL (≈ 2.97 µM)
MIC (strain #19 Proteus vulgaris): 0.5 µg/mL (≈ 1.49 µM)
MIC (strain #20 Proteus mirabilis): 0.13 µg/mL (≈ 0.386 µM)
MIC [12]: 0.5 µg/mL (≈ 1.49 µM)
MIC [13]: 0.13 µg/mL (≈ 0.386 µM)
MIC (strain #23 Serratia marcescens): 0.25 µg/mL (≈ 0.743 µM)
MIC (strain #24 Serratia marcescens): 0.5 µg/mL (≈ 1.49 µM)
MIC [14]: 0.13 µg/mL (≈ 0.386 µM)
MIC (strain #26 Shigella sonnei): 0.13 µg/mL (≈ 0.386 µM)
MIC (strain #27 Shigella flexneri): 0.063 µg/mL (≈ 0.187 µM)
MIC [15]: 0.063 µg/mL (≈ 0.187 µM)
MIC [16]: 1 µg/mL (≈ 2.97 µM)
MIC [17]: 1 µg/mL (≈ 2.97 µM)
MIC [18]: 0.5 µg/mL (≈ 1.49 µM)
MIC [19]: 1 µg/mL (≈ 2.97 µM)
MIC [20]: 1 µg/mL (≈ 2.97 µM)
MIC [21]: 1 µg/mL (≈ 2.97 µM)
MIC [22]: 2 µg/mL (≈ 5.95 µM)
MIC [23]: 8 µg/mL (≈ 23.8 µM)
